Each structure is given as a SMILES string.

The term IC50 denotes the concentration at which inhibition is half-maximal.

The target of the experiment is T1, human CXCR3 (N-delta 4) (Homo sapiens, UniProt P49682).
T1 construct: CD8 leader (N); Flag; expressed in transfected cells; membranes prepared
T1 sequence (P49682 5-368 limits assumed): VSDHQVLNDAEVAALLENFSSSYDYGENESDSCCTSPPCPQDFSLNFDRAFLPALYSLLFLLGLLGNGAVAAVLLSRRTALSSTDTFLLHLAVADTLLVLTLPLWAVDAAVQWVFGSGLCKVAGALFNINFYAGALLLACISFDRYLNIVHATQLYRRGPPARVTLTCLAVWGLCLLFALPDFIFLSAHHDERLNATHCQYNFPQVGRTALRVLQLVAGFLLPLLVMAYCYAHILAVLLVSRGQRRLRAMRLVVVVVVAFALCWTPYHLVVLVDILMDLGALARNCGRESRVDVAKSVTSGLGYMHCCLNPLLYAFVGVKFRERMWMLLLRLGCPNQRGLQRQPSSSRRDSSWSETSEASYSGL
The experiment is described as follows: Human CXCR3 (N-delta 4) Scintillation Proximity Assay (SPA), [125I] IP-10 binding to Ba/F3-hCXCR3 membranes. The note with it: IC50 rating, Table 1; read-out: IC50. (In general: Scintillation proximity formats need no separation of bound from free tracer.)

Take `CC[C@H]1CN(c2nc(N)c(C(=O)NCCNS(N)(=O)=O)nc2Cl)CCN1C1CCN(Cc2ccc(Cl)cc2C(=N)N)CC1` [compound 258]: the IC50 was below 25 nM.

Take `CC[C@H]1CN(c2nc(N)c(C(=O)NC(=N)NC)nc2Cl)CCN1C1CCN(C(=O)c2ccc(Cl)cc2)CC1` [compound 393]: the concentration for half-maximal inhibition (IC50) was below 25 nM. For `CC[C@H]1CN(c2nc(N)c(C(N)=O)nc2Cl)CCN1C1CCN(Cc2ccc(Cl)cc2C2COC(=O)O2)CC1` (stereo partly shown) [compound 24], the IC50 fell in the range of 25 to 100 nM.

Regarding `CC[C@H]1CN(c2ncc(C(=O)NC)nc2C)[C@H](C)CN1C1CCN(C(=O)c2ccc(Cl)cc2)CC1` [compound 452], the IC50 was below 25 nM.

Regarding `CC[C@H]1CN(c2ncc(C(N)=O)nc2C(F)(F)F)CCN1C1CCN(C(=O)c2ccc(Cl)cc2)CC1` [compound 416], the IC50 is below 25 nM. For the compound `CC[C@H]1CN(c2nc(N)c(C(=O)NCCO)nc2Cl)CCN1C1CCN(Cc2ccc(Cl)c(OCCS(C)(=O)=O)c2)CC1` [compound 410], the IC50 is below 25 nM. Take `CC[C@H]1CN(c2nc(N)c(C(=O)NCCNS(C)(=O)=O)nc2Cl)CCN1C1CCN([C@H](CO)c2ccc(Cl)cc2)CC1` [compound 249]: the IC50 was in the range of 25 to 100 nM. Regarding `CC[C@H]1CN(c2nc(N)c(C(=O)NC)nc2Cl)CCN1C1CCN(C(=O)c2c(C)cc(OCc3ccccc3)cc2C)CC1` [compound 367], the 50% inhibitory concentration (IC50) is above 100 nM.

On to `CC[C@H]1CN(c2nc(N)c(C(=O)NCCO)nc2Cl)CCN1C1CCN(Cc2ccc(OC(F)(F)F)cc2OCCCCO)CC1` [compound 119], for which the IC50 is below 25 nM. Take `CC[C@H]1CN(c2nc(N)c(C(N)=O)nc2Cl)CCN1C1CCN(Cc2ccc(Cl)cc2)CC1` [compound 1]: the IC50 is below 25 nM.

The record behind these values is US7868005B2, “Pyrazinyl substituted piperazine-piperidines with CXCR3 antagonist activity” (Schering Corporation, priority 2005, dated 2011).
